# Measured values as given in patent US20230159445A1, “STAT INHIBITORY COMPOUNDS AND COMPOSITIONS” (JANPIX LIMITED, priority 2020, published 2023).
# System: MV4-11 cells
# Assay: MV4-11 Cell Cytotoxicity Assay (CellTiter-Blue, 72 h)
# Type: cell-based, human
# Settings: Homo sapiens, MV4-11; MV-4-11 cells
# Experimental: In some embodiments, the potency of the STAT5 inhibitors are evaluated by an in vitro assay such as MV4-11 Cell Cytotoxicity Assay. […] 10,000 cells were plated per well in 96-well flat-bottom sterile culture plates with low-evaporation lids. After 24 h, inhibitors and a vehicle control (0.5% DMSO) were added and the cells were incubated for 72 h at 37° C. in 5% CO2. Inhibitors were examined in triplicate at a maximal concentration of 50 μM, followed by 1:2 dilutions in subsequent wells (25, 12.5, 6.25, 3.125, 1.5625, 0.78125, 0.390625, 0.195313 and 0.097656 μM). After 72 h, the wells were treated with CellTiter-Blue® (20 μL/well), and the plates were incubated using standard cell culture conditions for 1 hour. Fluorescence was measured at 560/590 nm.
row,SMILES,IC50 [µM]
1,"CC(C)(C)c1cc(CN(C(=O)CN(Cc2ccccn2)S(=O)(=O)c2c(F)c(F)c(F)c(F)c2F)c2ccc(C(=O)O)c(O)c2)cc(C2CC2)c1 [Compound 1008, 4-(N-(3-(tert-butyl)-5-cyclopropylbenzyl)-2-(N-(pyridin-2-ylmethyl)-(2,3,4,5,6-pentafluorophenyl)sulfonamido)acetamido)-2-hydroxybenzoic acid]",3.16 to 100
2,"COc1c(CN(C(=O)CN(Cc2ccc(Cl)cc2)S(=O)(=O)c2c(F)c(F)c(F)c(F)c2F)c2ccc(C(=O)O)c(O)c2)cc(C(C)(C)C)cc1C1CC1 [Compound 1009, 4-(N-(5-(tert-butyl)-3-cyclopropyl-2-methoxybenzyl)-2-(N-(4-chlorobenzyl)-(2,3,4,5,6-pentafluorophenyl)sulfon-amido)acetamido)-2-hydroxybenzoic acid]",3.16 to 100
3,"O=C(O)c1ccc(N(Cc2cc(OCC3CC3)cc(OCC3CC3)c2)C(=O)CN(Cc2ccc(Cl)cc2)S(=O)(=O)c2c(F)c(F)c(F)c(F)c2F)cc1O [Compound 1011, 4-(N-(3,5-bis(cyclopropylmethoxy)benzyl)-2-(N-(4-chlorobenzyl)-(2,3,4,5,6-pentafluorophenyl)sulfon-amido)acetamido)-2-hydroxybenzoic acid]",3.16 to 100
4,"CC(C)(C)c1cc(CN(C(=O)CN(Cc2cccnc2)S(=O)(=O)c2c(F)c(F)c(F)c(F)c2F)c2ccc(C(=O)O)c(O)c2)cc(C2CC2)c1 [Compound 1013, 4-(N-(3-(tert-butyl)-5-cyclopropylbenzyl)-2-(N-(pyridin-3-ylmethyl)-(2,3,4,5,6-pentafluoro-phenyl)sulfonamido)acetamido)-2-hydroxybenzoic acid]",3.16 to 100
5,"CC(C)(C)c1cc(CN(C(=O)CN(Cc2ccc(Cl)cc2)S(=O)(=O)c2c(F)c(F)c(F)c(F)c2F)c2ccc(O)c(C(=O)O)c2)cc(C2CC2)c1 [Compound 1018, 5-(N-(3-(tert-butyl)-5-cyclopropylbenzyl)-2-(N-(4-chlorobenzyl)-(2,3,4,5,6-pentafluorophenyl)sulfon-amido)acetamido)-2-hydroxybenzoic acid]",3.16 to 100
6,"CC(C)(C)c1cc(CN(C(=O)CN(Cc2ccc(Cl)cc2)S(=O)(=O)c2c(F)c(F)c(F)c(F)c2F)c2ccc(C(C)(C)C(=O)O)cc2)cc(C2CC2)c1 [Compound 1019, 2-(4-(N-(3-(tert-butyl)-5-cyclopropylbenzyl)-2-(N-(4-chlorobenzyl)-(2,3,4,5,6-pentafluorophenyl)sulfon-amido)acetamido)phenyl)-2-methylpropanoic acid]",1 to 3.16
7,"O=C(O)c1ccc(N(Cc2cc(O)cc(OCC3CC3)c2)C(=O)CN(Cc2ccc(Cl)cc2)S(=O)(=O)c2c(F)c(F)c(F)c(F)c2F)cc1O [Compound 1020, 4-(2-(N-(4-chlorobenzyl)-(2,3,4,5,6-pentafluorophenyl)sulfon-amido)-N-(3-(cyclopropylmethoxy)-5-hydroxybenzyl)acetamido)-2-hydroxybenzoic acid]",3.16 to 100
8,"COc1ccc(CN(CC(=O)N(Cc2cc(C3CC3)cc(C(C)(C)C)c2)c2ccc(C(=O)O)c(O)c2)S(=O)(=O)c2c(F)c(F)c(F)c(F)c2F)cc1 [Compound 1026, 4-(N-(3-(tert-butyl)-5-cyclopropylbenzyl)-2-(N-(4-methoxybenzyl)-(2,3,4,5,6-pentafluoro-phenyl)sulfonamido)acetamido)-2-hydroxybenzoic acid]",3.16 to 100
9,"COc1ccc(CN(CC(=O)N(Cc2cc(C3CC3)cc(C(C)(C)C)c2)c2ccc(C(=O)O)c(O)c2)S(=O)(=O)c2c(F)c(F)c(F)c(F)c2F)cc1F [Compound 1027, 4-(N-(3-(tert-butyl)-5-cyclopropylbenzyl)-2-(N-(3-fluoro-4-methoxybenzyl)-(2,3,4,5,6-pentafluoro-phenyl)sulfonamido)acetamido)-2-hydroxybenzoic acid]",3.16 to 100
10,"COc1cc(CN(CC(=O)N(Cc2cc(C3CC3)cc(C(C)(C)C)c2)c2ccc(C(=O)O)c(O)c2)S(=O)(=O)c2c(F)c(F)c(F)c(F)c2F)ccc1F [Compound 1028, 4-(N-(3-(tert-butyl)-5-cyclopropylbenzyl)-2-(N-(4-fluoro-3-methoxybenzyl)-(2,3,4,5,6-pentafluoro-phenyl)sulfonamido)acetamido)-2-hydroxybenzoic acid]",1 to 3.16
11,"CC(C)(C)c1cc(CN(C(=O)CN(Cc2ccc(Cl)cc2)S(=O)(=O)c2c(F)c(F)c(F)c(F)c2F)c2ccc(O)c(O)c2)cc(C2CC2)c1 [Compound 1029, N-(3-(tert-butyl)-5-cyclopropylbenzyl)-2-(N-(4-chlorobenzyl)-(2,3,4,5,6-pentafluorophenyl)sulfonamido)-N-(3,4-dihydroxyphenyl) acetamide]",3.16 to 100
12,"CC(C)(C)c1cc(CN(C(=O)CN(Cc2ccc(Cl)cc2)S(=O)(=O)c2c(F)c(F)c(F)c(F)c2F)c2cc(O)cc(O)c2)cc(C2CC2)c1 [Compound 1030, N-(3-(tert-butyl)-5-cyclopropylbenzyl)-2-(N-(4-chlorobenzyl)-(2,3,4,5,6-pentafluorophenyl)sulfonamido)-N-(3,5-dihydroxyphenyl) acetamide]",3.16 to 100
13,"CC(C)(C)c1cc(CN(C(=O)CN(Cc2ccc(Cl)cc2)S(=O)(=O)c2c(F)c(F)c(F)c(F)c2F)c2ccc(C(=O)NO)cc2)cc(C2CC2)c1 [Compound 1032, 4-(N-(3-(tert-butyl)-5-cyclopropylbenzyl)-2-(N-(4-chlorobenzyl)-(2,3,4,5,6-pentafluorophenyl)sulfon-amido)acetamido)-N-hydroxybenzamide]",3.16 to 100
14,"CC(C)(C)c1cc(CN(C(=O)CN(Cc2cccc(O)c2)S(=O)(=O)c2c(F)c(F)c(F)c(F)c2F)c2ccc(C(=O)O)c(O)c2)cc(C2CC2)c1 [Compound 1035, 4-(N-(3-(tert-butyl)-5-cyclopropylbenzyl)-2-(N-(3-hydroxybenzyl)-(2,3,4,5,6-pentafluoro-phenyl)sulfonamido)acetamido)-2-hydroxybenzoic acid]",3.16 to 100
15,"CC(C)(C)c1cc(CN(C(=O)CN(Cc2ccccc2O)S(=O)(=O)c2c(F)c(F)c(F)c(F)c2F)c2ccc(C(=O)O)c(O)c2)cc(C2CC2)c1 [Compound 1036, 4-(N-(3-(tert-butyl)-5-cyclopropylbenzyl)-2-(N-(2-hydroxybenzyl)-(2,3,4,5,6-pentafluoro-phenyl)sulfonamido)acetamido)-2-hydroxybenzoic acid]",1 to 3.16
16,"COc1cccc(CN(CC(=O)N(Cc2cc(C3CC3)cc(C(C)(C)C)c2)c2ccc(C(=O)O)c(O)c2)S(=O)(=O)c2c(F)c(F)c(F)c(F)c2F)c1 [Compound 1038, 4-(N-(3-(tert-butyl)-5-cyclopropylbenzyl)-2-(N-(3-methoxybenzyl)-(2,3,4,5,6-pentafluoro-phenyl)sulfonamido)acetamido)-2-hydroxybenzoic acid]",3.16 to 100
17,"COC(=O)C(C)(C)c1ccc(N(Cc2cc(C3CC3)cc(C(C)(C)C)c2)C(=O)CN(Cc2ccc(Cl)cc2)S(=O)(=O)c2c(F)c(F)c(F)c(F)c2F)cc1 [Compound 1042, methyl 2-(4-(N-(3-(tert-butyl)-5-cyclopropylbenzyl)-2-(N-(4-chlorobenzyl)-(2,3,4,5,6-pentafluorophenyl)sulfon-amido)acetamido)phenyl)-2-methylpropanoate]",3.16 to 100
18,"COC(=O)c1ccc(N(Cc2cc(C3CC3)cc(C(C)(C)C)c2)C(=O)CN(Cc2ccc(Cl)cc2)S(=O)(=O)c2c(F)c(F)c(F)c(F)c2F)cc1O [Compound 1051, methyl 4-(N-(3-(tert-butyl)-5-cyclopropylbenzyl)-2-(N-(4-chlorobenzyl)-(2,3,4,5,6-pentafluorophenyl)sulfon-amido)acetamido)-2-hydroxybenzoate]",3.16 to 100
19,"CC(C)(C)c1cc(CN(C(=O)CN(Cc2ccccc2F)S(=O)(=O)c2c(F)c(F)c(F)c(F)c2F)c2ccc(C(=O)O)cc2NS(C)(=O)=O)cc(C2CC2)c1 [Compound 1059, 4-(N-(3-(tert-butyl)-5-cyclopropylbenzyl)-2-(N-(2-fluorobenzyl)-(2,3,4,5,6-pentafluoro-phenyl)sulfonamido)acetamido)-3-(methylsulfonamido) benzoic acid]",3.16 to 100
20,"CC(C)Cc1cc(CN(C(=O)CN(Cc2ccccc2F)S(=O)(=O)c2c(F)c(F)c(F)c(F)c2F)c2ccc(C(=O)O)c(O)c2)cc(C2CC2)c1 [Compound 1067, 4-(N-(3-cyclopropyl-5-isobutylbenzyl)-2-(N-(2-fluorobenzyl)-(2,3,4,5,6-pentafluoro-phenyl)sulfonamido)acetamido)-2-hydroxybenzoic acid]",3.16 to 100
21,"CN(C)c1cc(C(=O)O)cc(F)c1N(Cc1cc(C2CC2)cc(C(C)(C)C)c1)C(=O)CN(Cc1ccccc1F)S(=O)(=O)c1c(F)c(F)c(F)c(F)c1F [Compound 1069, 4-(N-(3-(tert-butyl)-5-cyclopropylbenzyl)-2-(N-(2-fluorobenzyl)-(2,3,4,5,6-pentafluoro-phenyl)sulfonamido)acetamido)-3-(dimethylamino)-5-fluorobenzoic acid]",0.316 to 1
22,"CC(C)(C)c1cc(CN(C(=O)CN(Cc2ccccc2F)S(=O)(=O)c2c(F)c(F)c(F)c(F)c2F)c2ccc(C(=O)O)cc2NCCCCl)cc(C2CC2)c1 [Compound 1074, 4-(N-(3-(tert-butyl)-5-cyclopropylbenzyl)-2-(N-(2-fluorobenzyl)-(2,3,4,5,6-pentafluoro-phenyl)sulfonamido)acetamido)-3-((3-chloropropyl)amino) benzoic acid]",1 to 3.16
23,"COc1cc(C(=O)O)ccc1N(Cc1cc(C2CC2)cc(C(C)(C)C)c1)C(=O)CN(Cc1ccc(F)nc1Cl)S(=O)(=O)c1c(F)c(F)c(F)c(F)c1F [Compound 1096, 4-(N-(3-(tert-butyl)-5-cyclopropylbenzyl)-2-(N-((2-chloro-6-fluoropyridin-3-yl)methyl)-(2,3,4,5,6-pentafluorophenyl)sulfon-amido)acetamido)-3-methoxybenzoic acid]",1e-05 to 0.316
